“And” between values parts separate entries of the source, which are not always exact repeats. Equal entries are not always repeated. Marks after values point to notes of the source that are not given here.
Columns and labels:
Assay in all cases: metsulfuron whole plant greenhouse test (Example 5)
Type in all cases: in vivo
[1] = test system: sunflower line GM1606, A122T/A122T; settings: 14 DAT; for Dry Matter accumulation (DMA) / Mean Height Reduction (PH): percentage of untreated control
Procedure: (§1) Seeds were sown in Petri dishes and, after germination, plantlets were transplanted into 10 cm pots containing potting media consisting of equal parts of vermiculite, soil, and sand. Plants were grown in the greenhouse under natural light conditions supplemented with 400 W sodium halide lamps to provide a 16 hr daylength. Day/night temperatures were 25 and 20° C., respectively. At the V2-V4 stage (Schneiter & Miller, 1981) 20 plants of each genotype were randomly assigned to each treatment consisting of three metsulfuron methyl doses (0 or no treatment, 5 g ai/ha or a 1× rate, and 10 g ai/ha or a 2× rate). A zero-time biomass determination was also conducted. The experiment was arranged as a randomized complete block design (RCBD) with a full factorial arrangement of treatments and 20 replications (sunflower line×treatment).
(§2) For the zero-time dried weight determination, ten plants of each genotype were cut at the cotyledonal node on the day of herbicide application and dried at 60° C. for 48 hr. The rest of the plants were maintained for 14 days after herbicide treatment (DAT) and their height, Phytotoxicity Index (PI) and above ground dry biomass were recorded. Height was determined as the distance between the cotyledonal node and the apex of each plant. The above ground biomass data for each line was converted to biomass accumulation after application by subtracting the appropriate average zero-time biomass from each sample. Height and dry biomass were converted to a percentage of the untreated control for each line to allow direct comparisons between groups.
(§3) The data was subjected to an ANOVA and the means were compared by an LSD test.

[2] = test system: sunflower line GM40, A122T/A122T; settings: 14 DAT; for Dry Matter accumulation (DMA) / Mean Height Reduction (PH): percentage of untreated control
Procedure: as §1, §2, §3

[3] = test system: sunflower line BTSu-R1, P197L/P197L; settings: 14 DAT, percentage of untreated control
Procedure: as §1, §2, §3

[4] = test system: sunflower cmsGM40xL4, A122T/A122T; settings: 14 DAT; for Dry Matter accumulation (DMA) / Mean Height Reduction (PH): percentage of untreated control
Procedure: as §1, §2, §3

[5] = test system: sunflower line L4, A122T/A122T; settings: 14 DAT; for Dry Matter accumulation (DMA) / Mean Height Reduction (PH): percentage of untreated control
Procedure: as §1, §2, §3

[6] = test system: sunflower cmsGM40xBTSu-R1, A122T/P197L; settings: 14 DAT; for Dry Matter accumulation (DMA) / Mean Height Reduction (PH): percentage of untreated control
Procedure: as §1, §2, §3

sunflower line B770, WT = settings: 14 DAT
Procedure: as §1, §2, §3

[7] = 2X (10 g ai./ha), percentage of untreated control

## COC(=O)c1ccccc1S(=O)(=O)NC(=O)Nc1nc(C)nc(OC)n1 [metsulfuron]
[1]; 1X (5g ai./ha)
  Phytotoxicity Index (PI) (0-9): 8.70 ^d
  Dry Matter accumulation (DMA): 30.39 ^b %
  Mean Height Reduction (PH): 21.55 ^a %
[1]; 2X (10 g ai./ha)
  Phytotoxicity Index (PI) (0-9): 9.00 ^d
  Dry Matter accumulation (DMA): 20.45 ^a %
  Mean Height Reduction (PH): 21.70 ^a %
[2]; 1X (5g ai./ha)
  Phytotoxicity Index (PI) (0-9): 9.00 ^d
  Dry Matter accumulation (DMA): 25.73 ^ab %
  Mean Height Reduction (PH): 21.39 ^a %
[2]; 2X (10 g ai./ha)
  Phytotoxicity Index (PI) (0-9): 9.00 ^d
  Dry Matter accumulation (DMA): 20.69 ^a %
  Mean Height Reduction (PH): 21.17 ^a %
[3]; 1X (5g ai./ha)
  Dry Matter accumulation (DMA): 88% and 88.1% and 88.10 ^d %
  Plant height, % of untreated control: 79.01 ^b %
[3]; 2X (10 g ai./ha)
  Dry Matter accumulation (DMA): 77% and 76.69 ^c %
  Plant height, % of untreated control: 80.85 ^c %
[4]; 1X (5g ai./ha)
  Phytotoxicity Index (PI) (0-9): 8.67 ^d
  Dry Matter accumulation (DMA): 19.90 ^a %
  Mean Height Reduction (PH): 22.45 ^a %
[4]; 2X (10 g ai./ha)
  Phytotoxicity Index (PI) (0-9): 8.82 ^cd
  Dry Matter accumulation (DMA): 18.23 ^a %
  Mean Height Reduction (PH): 20.56 ^a %
[5]; 1X (5g ai./ha)
  Phytotoxicity Index (PI) (0-9): 8.25 ^b
  Dry Matter accumulation (DMA): 25.40 ^ab %
  Mean Height Reduction (PH): 19.47 ^a %
[5]; 2X (10 g ai./ha)
  Phytotoxicity Index (PI) (0-9): 8.5 ^c
  Dry Matter accumulation (DMA): 18.80 ^a %
  Mean Height Reduction (PH): 18.73 ^a %
[6]; 1X (5g ai./ha)
  Phytotoxicity Index (PI) (0-9): 0.00 ^a
  Dry Matter accumulation (DMA): 74.4% and 74.36 ^c %
  Mean Height Reduction (PH): 77.04 ^b %
[6]; 2X (10 g ai./ha)
  Dry Matter accumulation (DMA): 72.66 ^c %
  Mean Height Reduction (PH): 62% and 61.99 ^b %
Sunflower line B770, WT; 1X (5g ai./ha)
  Phytotoxicity Index (PI) (0-9): 8.50 ^bc
Sunflower line B770, WT; 1X (5g ai./ha), percentage of untreated control
  Dry Matter accumulation (DMA): 28.43 ^b %
Sunflower line B770, WT; 2X (10 g ai./ha)
  Phytotoxicity Index (PI) (0-9): 9.00 ^d
Sunflower line B770, WT; [7]
  Dry Matter accumulation (DMA): 28.77 ^b %
  Mean Height Reduction (PH): 18.20 ^a %

— patent US20150148234A1, “HERBICIDE-RESISTANT SUNFLOWER PLANTS WITH MULTIPLE HERBICIDE RESISTANT ALLELES OF AHASL1 AND METHODS OF USE” (NIDERA S.A., priority 2013, published 2015)
